According to ChEMBL document CHEMBL1201862, “PubChem BioAssay data set” (2004):
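Each compound was tested at five concentrations against cells in 96-well plates for 48 hours. GI50 is the concentration that inhibits growth by half.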 Calls of active or inactive are those of the source. No stated cut-off is given here; in the data, active = GI50 up to about 1.1 µM and inactive = higher.

Tests used:
Assay in all cases: growth of human tumour cells (NCI), 48 h
786-0 = test system: 786-0
DU-145 = test system: DU-145
EKVX = test system: EKVX
K562 = test system: K562
MDA-MB-231 = test system: MDA-MB-231
MDA-MB-435 = test system: MDA-MB-435
MOLT-4 = test system: MOLT-4
NCI-H23 = test system: NCI-H23
NCI-H460 = test system: NCI-H460
NCI/ADR-RES = test system: NCI/ADR-RES
OVCAR-3 = test system: OVCAR-3
OVCAR-4 = test system: OVCAR-4
PC-3 = test system: PC-3
SF-295 = test system: SF-295
SK-MEL-5 = test system: SK-MEL-5
SNB-19 = test system: SNB-19
SR = test system: SR
SW-620 = test system: SW-620
SK-OV-3 = test system: SK-OV-3

Measured: GI50

CNc1cccc2c1C(C)C[C@]1(C)C(=O)Nc3ccccc3[C@H]21 (some centres not stated)
inactive: 786-0 17.9 µM | DU-145 39.1 µM | EKVX 41.7 µM | K562 > 100 µM | MDA-MB-231 20.6 µM | MDA-MB-435 23.5 µM | MOLT-4 32.8 µM | NCI-H23 60.1 µM | NCI-H460 21.2 µM | NCI/ADR-RES 23.1 µM | OVCAR-3 17.5 µM | OVCAR-4 18.1 µM | PC-3 27.4 µM | SF-295 17.7 µM | SK-MEL-5 43.8 µM | SNB-19 23 µM | SR 23.8 µM | SW-620 33.9 µM

C=C1C(=O)O[C@H]2C(=O)[C@H](C)CCC/C(C)=C/CC[C@@]3(C)O[C@@H]3C[C@@H]12
inactive: 786-0 1.62 µM | DU-145 2.56 µM | K562 2.07 µM | MDA-MB-231 10.7 µM | MDA-MB-435 1.98 µM | MOLT-4 1.61 µM | NCI-H23 14 µM | NCI-H460 15.4 µM | NCI/ADR-RES 14 µM | OVCAR-3 1.74 µM | PC-3 6.76 µM | SF-295 14 µM | SK-MEL-5 7.59 µM | SK-OV-3 16.4 µM | SNB-19 11.4 µM | SR 2.45 µM | SW-620 1.56 µM

N=C(N)NS(=O)(=O)c1ccc(NNc2c3ccccc3nc3c(C(=O)Nc4ccc(S(=O)(=O)Nc5ncccn5)cc4)cccc23)cc1
inactive: 786-0 31.6 µM | DU-145 60.1 µM | EKVX 31.8 µM | K562 27.2 µM | MDA-MB-231 60.1 µM | MDA-MB-435 43.2 µM | MOLT-4 38.9 µM | NCI-H23 35.3 µM | NCI-H460 45.3 µM | NCI/ADR-RES > 100 µM | OVCAR-3 38.4 µM | OVCAR-4 29.2 µM | PC-3 33.7 µM | SF-295 40.2 µM | SK-MEL-5 26.6 µM | SNB-19 50.1 µM | SR > 10 µM | SW-620 37.5 µM

COc1cccc([C@@H]2C/C(=N\NC(=O)C(=O)N[C@@H](C)c3ccccc3)c3ccccc3N2)c1
inactive: 786-0 44.6 µM | DU-145 > 100 µM | EKVX 61.4 µM | K562 32.1 µM | MDA-MB-231 35.6 µM | MDA-MB-435 4.82 µM | MOLT-4 4.1 µM | NCI/ADR-RES 65.2 µM | OVCAR-3 > 100 µM | OVCAR-4 34.8 µM | PC-3 > 100 µM | SF-295 73.1 µM | SK-MEL-5 14.5 µM | SK-OV-3 > 100 µM | SNB-19 24.6 µM | SW-620 89.5 µM

CN(C)c1nc(N(C)C)n2nc(-c3ccccc3[N+](=O)[O-])nc2n1
inactive: 786-0 49.9 µM | EKVX > 100 µM | K562 > 100 µM | MOLT-4 > 100 µM | NCI-H23 > 100 µM | NCI-H460 78.7 µM | OVCAR-3 > 100 µM | OVCAR-4 > 100 µM | SF-295 > 100 µM | SK-MEL-5 > 100 µM | SK-OV-3 > 100 µM | SNB-19 > 100 µM | SR > 100 µM | SW-620 10.1 µM

Cc1nc2c(nc1C)C(=O)c1cc(O)ccc1C2=O
inactive: 786-0 > 95.5 µM | EKVX > 100 µM | K562 > 70.3 µM | MOLT-4 > 66.7 µM | NCI-H23 > 100 µM | NCI-H460 38.2 µM | OVCAR-3 29.3 µM | OVCAR-4 > 85.5 µM | SF-295 > 87.1 µM | SK-MEL-5 15.6 µM | SK-OV-3 > 100 µM | SNB-19 99.1 µM | SR 51.1 µM | SW-620 61.4 µM
